Data as given in US7070983B2, “Mutant Pseudomonas putida strains and methods of use thereof” (priority 2003, dated 2006).

Legend:
[1] = system: strain no. 3 harbouring a plasmid without rpsL; experiment: Complementation experiment, 4HBA-tolerance; assay type: cell-based, Pseudomonas putida
Excerpt: (§1) To clone the rpsL gene, a 0.9-kb DNA region covering whole rpsL was amplified from the chromosomal DNA of P. putida KH146-2 using KDO DNA polymerase (Toyobo Biochemicals, Osaka). Oligonucleotide primers were designed according to the rpoC-rpsL-rpsG sequence of P. putida KT2440 (www.tigr.org); 5′-[…]-3′ (SEQ ID NO:7—nucleotides [nt]−368 to −341 upstream of rpsL) and 5′-[…]-3′ (SEQ ID NO:8—complementary to nt 107 to 135 downstream of rpsL). The amplified DNA fragments were cloned into plasmid pUC118 (Vieira and Messing, (1987) Methods Enzymol 153: 3–11) to confirm the sequence, then excised from the plasmids as a BamHI-SphI fragment using the restriction sites in the multi-cloning sequence of the vector and inserted between the BglII and SphI sites of the E. coli-Pseudomonas shuttle vector pNIT6010 carrying tet^R, a derivative of pNIT6011 (Nishijyo et al. (2001) Mol Microbiol 40:917–931). The resultant plasmid pYI433, as well as vector control pNIT6010, was introduced into the Str mutant no. 3 (str-1) by conjugation using E. coli HB101/pRK2013 as the helper (Comai et al. (1983) Plasmid 10:21–30). Fifty μg ml^−1 of tetracycline was used for selection of transformants.
(§2) […]

[2] = system: strain no. 3 carrying plasmid pYI433 containing the wild-type rpsL gene; experiment: Complementation experiment, 4HBA-tolerance; assay type: cell-based, Pseudomonas putida; conditions: strain no. 3 with plasmid containing the rpsL gene
Excerpt: as §1, §2

[3] = system: P. putida strain no. 17 (Rif mutant); experiment: Tolerance test (MIC) on agar plates; assay type: cell-based, Pseudomonas putida
Description: (§3) Pseudomonas putida KH146-2 was originally isolated from soil for the capability of growing in the presence of 4-hydroxybenzoate (Chen et al., ((1998) Res Communs Biochem and Cell & Mol Biol 2: 253–274)). HBM medium consists of 50 mM sodium potassium phosphate buffer (pH6.8), 0.1% (NH4)2SO4 and Hutner's base. Hutner's base cotained (per liter) nitrilotriacetic acid, 200 mg; CaCl2.2H2O, 67 mg; (NH4)6Mo7O24.4H2O, 185 μg; MgSO4, 289 mg; EDTA, 2.5 mg; ZnSO4.7H2O, 11 mg; FeSO4.7H2O, 7 mg; MnSO4.H2O, 1.5 mg; CuSO4.5H2O, 390 μg; Co(NO3)2.6H2O, 250 μg, and Na2B4O7.10H2O, 180 μg. LB medium contains 1% tryptone, 0.5% yeast extract, and 1% NaCl (adjusted pH 6.8). LBH medium contains 1% tryptone and 0.5% yeast extract in HBM medium. The bacteria were grown at 30° C. in a shaker at 200 rpm. For tolerance tests, HBM or LBH agar plates containing serially increasing concentrations of an organic chemical were employed. Routinely, 20 to 40 bacterial strains were spot-transplanted with the aid of tooth pick on an agar plate, followed by incubation at 30° C. for 3 days.

[4] = system: P. putida strain no. 3 (Str mutant); experiment: Tolerance test (MIC) on agar plates; assay type: cell-based, Pseudomonas putida
Description: as §3

[5] = system: P. putida strain no. 9 (Str mutant); experiment: Tolerance test (MIC) on agar plates; assay type: cell-based, Pseudomonas putida
Description: as §3

[6] = system: P. putida strain no. 20 (Rif mutant); experiment: Tolerance test (MIC) on agar plates; assay type: cell-based, Pseudomonas putida; conditions: LBH medium
Description: as §3

[7] = system: P. putida strain no. 15 (Rif mutant); experiment: Tolerance test (MIC) on agar plates; assay type: cell-based, Pseudomonas putida
Description: as §3

[8] = system: P. putida strain no. 14 (Rif mutant); experiment: Tolerance test (MIC) on agar plates; assay type: cell-based, Pseudomonas putida
Description: as §3

[9] = system: P. putida strain no. 12 (Gen mutant); experiment: Tolerance test (MIC) on agar plates; assay type: cell-based, Pseudomonas putida
Description: as §3

[10] = system: P. putida strain no. 18 (Rif mutant); experiment: Tolerance test (MIC) on agar plates; assay type: cell-based, Pseudomonas putida; conditions: LBH medium
Description: as §3

[11] = system: 4HBA-adapted mutants of wild-type strain KH146-2; experiment: 4HBA tolerance by sequential adaptation; assay type: cell-based, Pseudomonas putida; conditions: mutants obtained by step by step adaptation
Description: Wild-type strain KH146-2 was adapted, step by step, to grow in HBM medium containing increasing concentrations (from 0.8% to 5%) of 4HBA. In steps using high concentrations (>3%) of 4HBA, adaptation required a longer term incubation (7˜10 days) for each step. In certain steps, the 4HBA-adapted mutants were isolated using agar plates (containing the adapted concentrations of 4HBA), on which tolerant mutants formed big size colonies.

Str mutant no. 3 = conditions: read-out: apparent Km of 4HBA uptake, 50 to 500 μM 4HBA
Description: (§4) The method described by Thanassi et al. ((1995) J Bacteriol 177:998–1007) was used with some modifications. The bacteria were grown to mid-log phase in HBM medium containing 0.3% 4HBA, washed and resuspended in 0.3% succinate-HBM medium to give OD660=0.7. A 5 ml-aliquot of the bacterial suspension in a 100 ml flask was incubated in a shaker bath. A 0.5 μCi [carboxyl-^14C]4HBA (55 mCi mmol^−1, ARC.) with unlabelled 4HBA at increasing concentrations, were added to the 5 ml bacterial suspension and incubation was continued. At the indicated time, a 0.5 ml aliquot of sample was removed and filtered using a nitrocellulose filter (0.45 μm pore size, Millipore Corp, Bedford, Mass.) which had previously been washed with 2 ml of HBM medium containing 5 mM 4HBA. The sample was applied with a Pipetman, followed by immediate washing with 3 ml of 5 mM 4HBA-HBM medium. The membrane filter was dried, and transferred to a scintillation vial containing Brey's solution, and radioactivity was measured in scintillation spectrometer. From the rate of uptake and the concentration of 4HBA, apparent Km was determined by reciprocal plotting as described by Beman et al ((1983) J Bacteriol 156:1107–1117).
(§5) Therefore, we first grew cells to mid-log phase in HBM medium containing 0.3% 4HBA and succinate, washed, and resuspended in HBM medium containing only succinate. [^14C]4HBA was then added with unlabeled 4HBA at various (50 to 500 μM) concentrations.

Rif mutant no. 17 = conditions: read-out: apparent Km of 4HBA uptake, 50 to 500 μM 4HBA
Description: as §4, §5

wild-type KH146-2 = conditions: read-out: apparent Km of 4HBA uptake; wild-type strain; 50 to 500 μM 4HBA
Description: as §4, §5

[12] = system: wild-type and mutant strains; experiment: Determination of protein synthesis ([14C]leucine incorporation); assay type: cell-based, Pseudomonas putida; conditions: absence or presence (0.6 or 1.2%) of 4HBA; data not shown
[13] = system: P. putida wild-type KH146-2; assay type: cell-based, Pseudomonas putida; conditions: LBH medium, 30° C., 3 days
Description: as §3

[14] = system: 4HBA-tolerant Str, Gen and Rif mutants of P. putida KH146-2; assay type: cell-based, Pseudomonas putida; conditions: the mutants; 4HBA as the sole carbon source
Description: as §3
Using several strains randomly chosen as representatives of 4HBA-tolerant mutants, we examined the tolerance level to various organic compounds. […] Tolerance levels to other organic compounds were also examined.

[15] = system: Strain no. 55 (Str Gen double mutant); experiment: 4HBA tolerance after growth on LB without 4HBA; assay type: cell-based, Pseudomonas putida; conditions: strains grown once on LB medium without 4HBA
[16] = system: Str Gen double mutant no. 55; experiment: Uptake of [14C]4HBA; assay type: cell-based, Pseudomonas putida; conditions: [14C]4HBA at 100 μM, FIG. 3
Description: as §4
(§6) Therefore, we first grew cells to mid-log phase in HBM medium containing 0.3% 4HBA and succinate, washed, and resuspended in HBM medium containing only succinate. […]

Str and Rif mutants = assay type: cell-based, Pseudomonas putida
Description: as §4, §6

parental strain KH146-2 = experiment: Antibiotic growth suppression on LB agar; assay type: cell-based, Pseudomonas putida
Excerpt: (§7) Spontaneous streptomycin-resistant (Str), gentamicin-resistant (Gen) or rifampicin-resistant (Rif) mutants were obtained from colonies that grew within 3 days after wild-type cells were spread on LB agar containing various concentrations of antibiotic.
We first isolated a number of spontaneous streptomycin-resistant (Str), gentamicin-resistant (Gen) and rifampicin-resistant (Rif) mutants of P. putida KH146-2. These mutants appeared at a frequency of 10^−5–10^−6 when KH146-2 cells were spread on LB agar containing various amounts of antibiotics. […] Forty mutants resistant to each antibiotic were randomly selected and examined for tolerance to 4-hydroxybenzoic acid (4HBA). 4HBA-tolerant strains, which could grow in the presence of 1% 4HBA, were detected among these antibiotic resistant mutants at a high frequency of 3 to 15% (Table 1). The highest frequency (15%) was detected in the mutants selected with 1000 μg ml^−1 of streptomycin. These 4HBA-tolerant isolates all grew as well as the parent strain on LB agar.

[17] = system: P. putida strain no. 14 (rif-1); experiment: Resistance level to antibiotic on LB agar; assay type: cell-based, Pseudomonas putida; conditions: 1 days on LB agar
Excerpt: as §7

[18] = system: P. putida strain no. 19 (rif-5); experiment: Resistance level to antibiotic on LB agar; assay type: cell-based, Pseudomonas putida; conditions: 1 days on LB agar
Excerpt: as §7

[19] = system: P. putida strain no. 15 (rif-2); experiment: Resistance level to antibiotic on LB agar; assay type: cell-based, Pseudomonas putida; conditions: 1 days on LB agar
Excerpt: as §7

[20] = system: P. putida strain no. 23 (rif-4); experiment: Resistance level to antibiotic on LB agar; assay type: cell-based, Pseudomonas putida; conditions: 1 days on LB agar
Excerpt: as §7

[21] = system: P. putida strain no. 17 (rif-3); experiment: Resistance level to antibiotic on LB agar; assay type: cell-based, Pseudomonas putida; conditions: 1 days on LB agar
Excerpt: as §7

[22] = system: P. putida strain no. 20 (rif-5); experiment: Resistance level to antibiotic on LB agar; assay type: cell-based, Pseudomonas putida; conditions: 1 days on LB agar
Excerpt: as §7

[23] = system: P. putida strain no. 24 (rif-4); experiment: Resistance level to antibiotic on LB agar; assay type: cell-based, Pseudomonas putida; conditions: 1 days on LB agar
Excerpt: as §7

[24] = system: P. putida strain no. 22 (rif-3); experiment: Resistance level to antibiotic on LB agar; assay type: cell-based, Pseudomonas putida; conditions: 1 days on LB agar
Excerpt: as §7

[25] = system: P. putida strain no. 18 (rif-4); experiment: Resistance level to antibiotic on LB agar; assay type: cell-based, Pseudomonas putida; conditions: 1 days on LB agar
Excerpt: as §7

[26] = system: P. putida strain no. 21 (rif-3); experiment: Resistance level to antibiotic on LB agar; assay type: cell-based, Pseudomonas putida; conditions: 1 days on LB agar
Excerpt: as §7

[27] = system: P. putida strain no. 11 (gen); experiment: Resistance level to antibiotic on LB agar; assay type: cell-based, Pseudomonas putida; conditions: 1 days on LB agar
Excerpt: as §7

[28] = system: P. putida strain no. 13 (gen); experiment: Resistance level to antibiotic on LB agar; assay type: cell-based, Pseudomonas putida; conditions: 1 days on LB agar
Excerpt: as §7

[29] = system: P. putida strain no. 12 (gen); experiment: Resistance level to antibiotic on LB agar; assay type: cell-based, Pseudomonas putida; conditions: 1 days on LB agar
Excerpt: as §7

[30] = HBM medium, 4HBA as a sole carbon source

O=C(O)c1ccc(O)cc1 [4HBA, 4-hydroxybenzoate]
4HBA-tolerance [1]: 1.6%
4HBA-tolerance [2]: 1%
Tolerance (MIC) [3, 30]: (1.3 ± 0.1) %
Tolerance (MIC) ([3]; LBH medium): 1.8 ± 0.2%
Tolerance (MIC) [4, 30]: (1.7 ± 0.1) %
Tolerance (MIC) ([4]; LBH medium): 1.9 ± 0.1%
Tolerance (MIC) [5, 30]: (1.3 ± 0.2) %
Tolerance (MIC) ([5]; LBH medium): 1.6 ± 0.2%
Tolerance (MIC) [6]: 1.9 ± 0.1%
Tolerance (MIC) [7, 30]: (1.2 ± 0.2) %
Tolerance (MIC) ([7]; LBH medium): 1.8 ± 0.2%
Tolerance (MIC) [8, 30]: (1.4 ± 0.2) %
Tolerance (MIC) ([8]; LBH medium): 1.8 ± 0.2%
Tolerance (MIC) [9, 30]: (1.6 ± 0.2) %
Tolerance (MIC) ([9]; LBH medium): 1.9 ± 0.3%
Tolerance (MIC) [10]: 2.0 ± 0.2%
4HBA concentration tolerated [11]: up to 5%
Km (Str mutant no. 3): 470 µM
Km (Rif mutant no. 17): 620 µM
Km (wild-type KH146-2): 240 µM
degree of suppression of protein synthesis, wild-type vs mutant strains [12]: no difference
Tolerance (MIC) [13]: 1.4 ± 0.1%
minimum inhibitory concentration (MIC) [14]: 1.7%
Tolerance to 4HBA ([15]; 3% 4HBA): still showed a tolerance
Growth on 4HBA-containing medium ([15]; 5% 4HBA): no longer grew
uptake of 4HBA [16]: reduced uptake
Km values greater than wild-type (Str and Rif mutants; Str and Rif mutants vs wild-type): 2 to 3 fold
apparent uptake by the membrane transport system, reduction compared to wild-type (Str and Rif mutants; the mutants vs wild-type strain): 2 to 3 fold

CO[C@H]1/C=C/O[C@@]2(C)Oc3c(C)c(O)c4c(O)c(c(/C=N/N5CCN(C)CC5)c(O)c4c3C2=O)NC(=O)/C(C)=C\C=C\[C@H](C)[C@H](O)[C@@H](C)[C@@H](O)[C@@H](C)[C@H](OC(C)=O)[C@@H]1C [rifampicin]
Concentration completely suppressing growth (parental strain KH146-2): 10 µg/mL
Resistance level to antibiotic [17]: >500 (RIF) μg ml^−1
Resistance level to antibiotic [18]: 500 (RIF) μg ml^−1
Resistance level to antibiotic [19]: >500 (RIF) μg ml^−1
Resistance level to antibiotic [20]: 500 (RIF) μg ml^−1
Resistance level to antibiotic [21]: 500 (RIF) μg ml^−1
Resistance level to antibiotic [22]: 500 (RIF) μg ml^−1
Resistance level to antibiotic [23]: 500 (RIF) μg ml^−1
Resistance level to antibiotic [24]: 500 (RIF) μg ml^−1
Resistance level to antibiotic [25]: 500 (RIF) μg ml^−1
Resistance level to antibiotic [26]: 500 (RIF) μg ml^−1

gentamicin
Concentration completely suppressing growth (parental strain KH146-2): 12 µg/mL
Resistance level to antibiotic [27]: 50 (GEN) μg ml^−1
Resistance level to antibiotic [28]: 50 (GEN) μg ml^−1
Resistance level to antibiotic [29]: 50 (GEN) μg ml^−1
